Reference: publication PMC3705364, “Biochemical and Electrophysiological Characterization of Two Sea Anemone Type 1 Potassium Toxins from a Geographically Distant Population of Bunodosoma caissarum” (Marine Drugs, 2013)
Where a SMILES comes first, the peptide text is derived from it. Bridges are numbered along the chain shown (N, C = ends).

Assays:
[1] = target: T1, rKV1.2 (Rattus norvegicus, UniProt P63142); assay: Two-electrode voltage-clamp, X. laevis oocytes expressing rKV1.2; type: cell-based
T1 construct: expressed in transfected cells; host or cells: Xenopus laevis oocytes injected with cRNA
T1 sequence (P63142 whole entry): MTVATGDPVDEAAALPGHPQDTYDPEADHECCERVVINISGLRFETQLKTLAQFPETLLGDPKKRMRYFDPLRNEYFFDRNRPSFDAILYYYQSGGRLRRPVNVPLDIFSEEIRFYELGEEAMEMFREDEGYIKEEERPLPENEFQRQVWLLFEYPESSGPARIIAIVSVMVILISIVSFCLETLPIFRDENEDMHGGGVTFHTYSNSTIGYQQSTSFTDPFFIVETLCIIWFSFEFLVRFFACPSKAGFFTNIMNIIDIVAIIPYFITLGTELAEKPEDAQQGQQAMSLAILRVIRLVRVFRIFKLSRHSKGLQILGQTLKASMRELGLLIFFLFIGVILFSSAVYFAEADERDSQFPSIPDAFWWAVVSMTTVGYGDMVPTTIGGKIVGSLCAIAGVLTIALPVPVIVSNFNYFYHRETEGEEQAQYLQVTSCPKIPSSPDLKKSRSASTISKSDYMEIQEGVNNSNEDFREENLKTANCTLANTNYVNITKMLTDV
Experimental: (§1) Stage V–VI of X. laevis oocytes were harvested by partial ovariectomy under anesthesia (3-aminobenzoic acid ethyl ester methanesulfonate salt, 0.5 g/L from Sigma-Aldrich Co., Saint Louis, MO, USA). The oocytes were defolliculated for 2 h by treatment with 2 mg/mL collagenase (Sigma-Aldrich Co., Saint Louis, MO, USA) in Ca^2+ free ND96 solution (in mM: 96 NaCl; 2 KCl; 1 MgCl2; 5 HEPES adjusted pH 7.4). For the expression of KV channels (KV1.1–KV1.6, KV2.1, KV3.1, KV4.2, KV4.3, hERG and the insect channel Shaker IR), the linearized plasmids were transcribed using the T7 or SP6 mMessage-mMachine transcription kit (Ambion, Austin, TX, USA). Oocytes were injected with 50 nL of cRNA at a concentration of 1 ng/nL using a microinjector (Drummond Scientific, Broomall, PA, USA). The oocytes were maintained in a ND96 solution (in mM: 96 NaCl, 2 KCl, 1.8 CaCl2, 2 MgCl2 and 5 HEPES; adjusted pH 7.4), supplemented with 50 µg/mL gentamicin sulfate.
(§2) Two-electrode voltage-clamp recordings were performed at room temperature (18–22 °C) using a Geneclamp 500 amplifier (Molecular Devices, Sunnyvale, CA, USA) controlled by a pClamp data acquisition system (Axon Instruments, Union City, CA, USA). Whole-cell currents from oocytes were recorded from 1 to 3 days after injection. Bath solution was the same ND96 solution described above. Voltage and current electrodes were filled with 3 M KCl. Resistances of both electrodes were kept between 0.8 and 1.0 ΩM. The elicited currents were filtered at 500 Hz using a four-pole lowpass Bessel filter. Leak subtraction was performed using a −P/4 protocol. KV1.1–KV1.6 and Shaker IR currents were evoked by 500 ms depolarizations to 0 mV, followed by a 500 ms pulse to −50 mV, from a holding potential of −90 mV. Current traces of hERG channels were elicited by applying a +40 mV prepulse for 2 s, followed by a step to −120 mV for 2 s. KV3.1, KV 4.2 and KV4.3 currents were elicited by 500 ms pulses to +20 mV from a holding potential of −90 mV. To assess the concentration-response relationships, data were fitted with the Hill equation: y = 100/[1 + (EC50/[toxin])h] (1) where y is the amplitude of the toxin-induced effect, EC50 is the toxin concentration at half maximal efficacy, [toxin] is the toxin concentration and h is the Hill coefficient. In order to investigate the current-voltage relationship, current traces were evoked by 10 mV depolarization steps from a holding potential of −90 mV. […]
(§3) Comparison of two sample means was made using a paired Student’s t test (p < 0.05). […] All data were analyzed using Clampfit 10.3 (Molecular Devices, Sunnyvale, CA, USA) and Origin 7.5 software (Origin Lab., Northampton, MA, USA).

[2] = target: T2, rKV1.1 (Rattus norvegicus, UniProt P10499); assay: Two-electrode voltage-clamp, X. laevis oocytes expressing rKV1.1; type: cell-based; conditions: mean ± standard error
T2 construct: expressed in transfected cells; host or cells: Xenopus laevis oocytes injected with cRNA
T2 sequence (P10499 whole entry): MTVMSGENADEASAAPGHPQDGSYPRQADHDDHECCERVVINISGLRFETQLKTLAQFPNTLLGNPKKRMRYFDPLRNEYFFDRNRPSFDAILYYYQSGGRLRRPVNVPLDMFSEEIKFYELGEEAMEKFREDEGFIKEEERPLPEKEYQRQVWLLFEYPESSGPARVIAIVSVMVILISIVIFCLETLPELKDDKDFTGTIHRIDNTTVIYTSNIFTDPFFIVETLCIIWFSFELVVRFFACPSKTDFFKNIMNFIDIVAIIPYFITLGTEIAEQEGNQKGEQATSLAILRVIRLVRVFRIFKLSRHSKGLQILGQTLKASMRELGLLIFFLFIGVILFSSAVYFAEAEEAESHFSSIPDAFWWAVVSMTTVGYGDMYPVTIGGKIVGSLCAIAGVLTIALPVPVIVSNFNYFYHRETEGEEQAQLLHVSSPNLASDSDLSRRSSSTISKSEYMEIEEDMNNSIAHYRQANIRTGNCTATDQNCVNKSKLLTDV
Experimental: as §1, §2, §3

[3] = target: hKV1.3 (Homo sapiens, UniProt P22001); assay: Two-electrode voltage-clamp, X. laevis oocytes expressing hKV1.3; type: cell-based; set-up: expressed in transfected cells; host or cells: Xenopus laevis oocytes injected with cRNA
Sequence of hKV1.3 (P22001 whole entry): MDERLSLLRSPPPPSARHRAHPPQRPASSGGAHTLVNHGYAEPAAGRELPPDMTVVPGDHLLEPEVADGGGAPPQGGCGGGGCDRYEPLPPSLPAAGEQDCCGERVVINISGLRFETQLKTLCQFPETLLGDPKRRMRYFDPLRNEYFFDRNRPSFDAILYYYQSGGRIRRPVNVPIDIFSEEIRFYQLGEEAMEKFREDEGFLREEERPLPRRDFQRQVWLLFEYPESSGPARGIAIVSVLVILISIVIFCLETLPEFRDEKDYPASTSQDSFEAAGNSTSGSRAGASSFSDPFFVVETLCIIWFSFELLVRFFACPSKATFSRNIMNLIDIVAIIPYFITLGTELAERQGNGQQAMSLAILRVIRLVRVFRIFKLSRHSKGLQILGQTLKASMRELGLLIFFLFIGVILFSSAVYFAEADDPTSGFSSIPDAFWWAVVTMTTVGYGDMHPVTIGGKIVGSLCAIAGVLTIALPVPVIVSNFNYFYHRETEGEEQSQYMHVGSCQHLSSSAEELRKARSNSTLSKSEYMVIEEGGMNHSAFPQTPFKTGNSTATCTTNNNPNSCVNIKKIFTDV
Experimental: as §1, §2, §3

[4] = target: T3, Shaker IR (Drosophila melanogaster, UniProt P08510, DEL6-46); assay: Two-electrode voltage-clamp, X. laevis oocytes expressing Shaker IR; type: cell-based, insect; conditions: mean ± standard error
T3 construct: expressed in transfected cells; host or cells: Xenopus laevis oocytes injected with cRNA
T3 sequence (P08510 with tags, fused parts or gaps DEL6-46): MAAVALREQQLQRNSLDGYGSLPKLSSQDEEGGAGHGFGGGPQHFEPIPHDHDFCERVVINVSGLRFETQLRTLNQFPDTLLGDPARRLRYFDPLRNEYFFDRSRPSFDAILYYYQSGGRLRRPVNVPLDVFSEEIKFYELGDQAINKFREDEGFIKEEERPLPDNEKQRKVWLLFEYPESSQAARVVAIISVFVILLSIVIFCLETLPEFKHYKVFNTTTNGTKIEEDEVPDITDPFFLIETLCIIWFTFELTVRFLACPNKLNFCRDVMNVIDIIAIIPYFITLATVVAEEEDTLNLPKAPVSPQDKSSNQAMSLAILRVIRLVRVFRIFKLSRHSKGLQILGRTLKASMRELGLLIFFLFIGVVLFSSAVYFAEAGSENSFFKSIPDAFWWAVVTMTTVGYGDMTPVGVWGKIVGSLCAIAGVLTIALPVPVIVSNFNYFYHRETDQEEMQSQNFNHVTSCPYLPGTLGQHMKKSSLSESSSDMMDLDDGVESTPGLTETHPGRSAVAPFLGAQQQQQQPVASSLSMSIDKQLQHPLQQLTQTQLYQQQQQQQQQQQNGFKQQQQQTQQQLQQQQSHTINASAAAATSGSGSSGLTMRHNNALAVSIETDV
Experimental: as §1, §2, §3

[5] = target: T4, rKV1.6 (Rattus norvegicus, UniProt P17659); assay: Two-electrode voltage-clamp, X. laevis oocytes expressing rKV1.6; type: cell-based; conditions: mean ± standard error
T4 construct: expressed in transfected cells; host or cells: Xenopus laevis oocytes injected with cRNA
T4 sequence (P17659 whole entry): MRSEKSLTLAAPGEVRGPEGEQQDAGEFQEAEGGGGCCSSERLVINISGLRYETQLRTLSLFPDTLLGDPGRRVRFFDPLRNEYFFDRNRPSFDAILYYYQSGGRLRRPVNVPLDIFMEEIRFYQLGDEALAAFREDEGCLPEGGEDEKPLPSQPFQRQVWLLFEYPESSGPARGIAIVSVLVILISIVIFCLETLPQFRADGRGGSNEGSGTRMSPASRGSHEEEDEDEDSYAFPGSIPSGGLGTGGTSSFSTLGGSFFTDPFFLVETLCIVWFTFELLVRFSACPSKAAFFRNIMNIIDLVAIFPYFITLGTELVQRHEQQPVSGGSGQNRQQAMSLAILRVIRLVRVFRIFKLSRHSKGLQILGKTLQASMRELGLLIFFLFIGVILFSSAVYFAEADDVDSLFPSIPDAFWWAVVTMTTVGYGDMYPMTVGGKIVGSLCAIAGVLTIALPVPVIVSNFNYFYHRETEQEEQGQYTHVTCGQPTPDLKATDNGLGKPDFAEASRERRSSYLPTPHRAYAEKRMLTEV
Experimental: as §1, §2, §3

[6] = TEVC, 18–22 °C, ND96 pH 7.4, 500 ms depolarizations to 0 mV from −90 mV, Hill fit, mean ± standard error, n ≥ 3
[7] = TEVC, 18–22 °C, ND96 pH 7.4, 500 ms depolarizations to 0 mV from −90 mV, Hill fit, n ≥ 3

`CC(C)C[C@@H]1NC(=O)[C@H](CCCCN)NC(=O)[C@H](C)NC(=O)[C@H](Cc2c[nH]cn2)NC(=O)[C@H](CCC(N)=O)NC(=O)[C@@H]2CSSC[C@@H]3NC(=O)[C@H](CC(N)=O)NC(=O)[C@H](C)NC(=O)[C@H](CCCNC(=N)N)NC(=O)[C@H](Cc4ccc(O)cc4)NC(=O)[C@H](CCCCN)NC(=O)[C@H](CCC(N)=O)NC(=O)[C@H](CO)NC(=O)[C@H](CC(N)=O)NC(=O)[C@H](CCCCN)NC(=O)[C@H](CSSC[C@H](NC(=O)[C@H]([C@@H](C)O)NC(=O)[C@H](CCCCN)NC(=O)[C@H](C)NC3=O)C(=O)NCC(=O)N3CCC[C@H]3C(=O)N[C@H](C(=O)O)CSSC[C@H](NC(=O)[C@H](C)N)C(=O)N[C@@H](CCCCN)C(=O)N[C@@H](CC(=O)O)C(=O)NCC(=O)N[C@@H](Cc3ccccc3)C(=O)N3CCC[C@H]3C(=O)N[C@@H]([C@@H](C)O)C(=O)N[C@@H](C)C(=O)N[C@@H]([C@@H](C)O)C(=O)N2)NC(=O)[C@H](CC(N)=O)NC(=O)CNC(=O)[C@H](C(C)C)NC1=O` [BcsTx2] (H-ACKDGFPTATCQHAKLVGNCKNSQKYRANCAKTCGPC-OH; disulfide 2-37, 11-30, 20-34; C-terminus assumed) was tested, and the inhibition at 3 µM ([1]; 3 µM, n ≥ 3, read-out: inhibition of rKV1.2 current) was 100%, the IC50 [1, 6] was 80.4 ± 1.44 nM and the inhibition at 3 µM ([2]; 3 µM, n ≥ 3, read-out: inhibition of rKV1.1 current) was 96%. It also gave an IC50 [2, 7] of 14.4 ± 2.61 nM, an inhibition at 3 µM ([3]; 3 µM, n ≥ 3, read-out: inhibition of hKV1.3 current) of 100% and an IC50 [3, 6] of 13.1 ± 3.29 nM. It also gave an inhibition at 3 µM ([4]; 3 µM, n ≥ 3, read-out: inhibition of Shaker IR current) of 94%, an IC50 [4, 7] of 49.1 ± 3.44 nM and an inhibition at 3 µM ([5]; 3 µM, n ≥ 3, read-out: inhibition of rKV1.6 current) of 98%. The IC50 [5, 7] was 7.76 ± 1.9 nM.
